Measurements taken from article PMC4522657, “Identification of a DYRK1A Inhibitor that Induces Degradation of the Target Kinase using Co-chaperone CDC37 fused with Luciferase nanoKAZ” (Scientific Reports, 2015).

What was measured:
Test in all cases: Kinase panel, CaNDY 1 µM
Assay type in all cases: biochemical
Conditions in all cases: CaNDY 1 µM relative to DMSO
MARK1 = target: T1, MARK1 (Homo sapiens, UniProt Q9P0L2)
T1 construct: purchased Carna Biosciences
Method in brief: (§1)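 Reaction: 1 h, room temperature, 1% DMSO final. Detection: off-chip mobility shift, product and substrate resolved electrophoretically. Output: % inhibition from P/(P+S) versus control without compound. Enzyme: baculovirus-made full-length human GST-fusion kinase.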

EGFR = target: T2, EGFR (Homo sapiens, UniProt P00533)
T2 construct: purchased Carna Biosciences
Method in brief: as §1

LCK = target: T3, LCK (Homo sapiens, UniProt P06239)
T3 construct: purchased Carna Biosciences
Method in brief: as §1

FLT4 = target: T4, FLT4 (Homo sapiens, UniProt P35916)
T4 construct: purchased Carna Biosciences
Method in brief: as §1

EPHA3 = target: T5, EPHA3 (Homo sapiens, UniProt P29320)
T5 construct: purchased Carna Biosciences
Method in brief: as §1

EGFR(L858R) = target: T6, EGFR(L858R) (Homo sapiens, UniProt P00533, L858R)
T6 construct: purchased Carna Biosciences
Method in brief: as §1

PDK1 = target: T7, PDK1 (Homo sapiens, UniProt O15530)
T7 construct: purchased Carna Biosciences
Method in brief: as §1

KIT = target: T8, KIT (Homo sapiens, UniProt P10721)
T8 construct: purchased Carna Biosciences
Method in brief: as §1

Erk5 = target: T9, Erk5 (Homo sapiens, UniProt Q13164)
T9 construct: purchased Carna Biosciences
Method in brief: as §1

CDC7/ASK = target: T10, CDC7/ASK (Homo sapiens, UniProt O00311)
T10 construct: purchased Carna Biosciences
Method in brief: as §1

EGFR(d746-750) = target: T11, EGFR(d746-750) (Homo sapiens, UniProt P00533, DEL746-750)
T11 construct: purchased Carna Biosciences
Method in brief: as §1

FGFR1 = target: T12, FGFR1 (Homo sapiens, UniProt P11362)
T12 construct: purchased Carna Biosciences
Method in brief: as §1

SPHK1 = target: T13, SPHK1 (Homo sapiens, UniProt Q9NYA1)
T13 construct: purchased Carna Biosciences
Method in brief: as §1

LTK = target: T14, LTK (Homo sapiens, UniProt P29376)
T14 construct: purchased Carna Biosciences
Method in brief: as §1

SGK3 = target: T15, SGK3 (Homo sapiens, UniProt Q96BR1)
T15 construct: purchased Carna Biosciences
Method in brief: as §1

BRAF(V600E)_Cascade = target: T16, BRAF(V600E)_Cascade (Homo sapiens, UniProt P15056, V600E)
T16 construct: purchased Carna Biosciences
Method in brief: as §1

WNK1 = target: T17, WNK1 (Homo sapiens, UniProt Q9H4A3)
T17 construct: purchased Carna Biosciences
Method in brief: as §1

AKT1 = target: T18, AKT1 (Homo sapiens, UniProt P31749)
T18 construct: purchased Carna Biosciences
Method in brief: as §1

AKT3 = target: T19, AKT3 (Homo sapiens, UniProt Q9Y243)
T19 construct: purchased Carna Biosciences
Method in brief: as §1

TXK = target: T20, TXK (Homo sapiens, UniProt P42681)
T20 construct: purchased Carna Biosciences
Method in brief: as §1

TYRO3 = target: T21, TYRO3 (Homo sapiens, UniProt Q06418)
T21 construct: purchased Carna Biosciences
Method in brief: as §1

NPM1-ALK = target: T22, NPM1-ALK (Homo sapiens, UniProt P06748+Q9UM73)
T22 construct: purchased Carna Biosciences
Method in brief: as §1

PKD1 = target: T23, PKD1 (Homo sapiens, UniProt Q15139)
T23 construct: purchased Carna Biosciences
Method in brief: as §1

MAP2K3_Cascade = target: T24, MAP2K3_Cascade (Homo sapiens, UniProt P46734)
T24 construct: purchased Carna Biosciences
Method in brief: as §1

ABL(T315I) = target: T25, ABL(T315I) (Homo sapiens, UniProt P00519, T315I)
T25 construct: purchased Carna Biosciences
Method in brief: as §1

RET(Y791F) = target: T26, RET(Y791F) (Homo sapiens, UniProt P07949, Y791F)
T26 construct: purchased Carna Biosciences
Method in brief: as §1

PRKX = target: T27, PRKX (Homo sapiens, UniProt P51817)
T27 construct: purchased Carna Biosciences
Method in brief: as §1

MER = target: T28, MER (Homo sapiens, UniProt Q12866)
T28 construct: purchased Carna Biosciences
Method in brief: as §1

HCK = target: T29, HCK (Homo sapiens, UniProt P08631)
T29 construct: purchased Carna Biosciences
Method in brief: as §1

PAK3 = target: T30, PAK3 (Homo sapiens, UniProt O75914)
T30 construct: purchased Carna Biosciences
Method in brief: as §1

KIT(T670I) = target: T31, KIT(T670I) (Homo sapiens, UniProt P10721, T670I)
T31 construct: purchased Carna Biosciences
Method in brief: as §1

MOS_Cascade = target: T32, MOS_Cascade (Homo sapiens, UniProt P00540)
T32 construct: purchased Carna Biosciences
Method in brief: as §1

MAP4K2 = target: T33, MAP4K2 (Homo sapiens, UniProt Q12851)
T33 construct: purchased Carna Biosciences
Method in brief: as §1

NEK1 = target: T34, NEK1 (Homo sapiens, UniProt Q96PY6)
T34 construct: purchased Carna Biosciences
Method in brief: as §1

MAP2K1_Cascade = target: T35, MAP2K1_Cascade (Homo sapiens, UniProt Q02750)
T35 construct: purchased Carna Biosciences
Method in brief: as §1

T30 sequence (O75914 whole entry): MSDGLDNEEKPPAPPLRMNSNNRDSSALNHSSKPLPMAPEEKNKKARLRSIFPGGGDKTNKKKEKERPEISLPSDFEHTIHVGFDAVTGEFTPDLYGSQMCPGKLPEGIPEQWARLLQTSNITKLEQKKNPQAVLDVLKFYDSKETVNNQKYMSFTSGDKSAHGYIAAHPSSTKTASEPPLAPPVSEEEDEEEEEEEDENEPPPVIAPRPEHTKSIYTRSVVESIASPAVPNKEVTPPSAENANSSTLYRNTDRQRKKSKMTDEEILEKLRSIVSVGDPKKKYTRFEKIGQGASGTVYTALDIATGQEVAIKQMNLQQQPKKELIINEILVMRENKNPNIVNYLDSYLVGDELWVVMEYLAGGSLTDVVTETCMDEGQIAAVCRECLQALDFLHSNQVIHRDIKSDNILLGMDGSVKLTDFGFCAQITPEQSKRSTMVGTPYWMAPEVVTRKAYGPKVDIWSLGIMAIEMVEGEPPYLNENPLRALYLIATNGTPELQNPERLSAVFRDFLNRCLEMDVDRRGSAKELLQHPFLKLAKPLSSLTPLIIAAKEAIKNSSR
T5 sequence (P29320 21-983): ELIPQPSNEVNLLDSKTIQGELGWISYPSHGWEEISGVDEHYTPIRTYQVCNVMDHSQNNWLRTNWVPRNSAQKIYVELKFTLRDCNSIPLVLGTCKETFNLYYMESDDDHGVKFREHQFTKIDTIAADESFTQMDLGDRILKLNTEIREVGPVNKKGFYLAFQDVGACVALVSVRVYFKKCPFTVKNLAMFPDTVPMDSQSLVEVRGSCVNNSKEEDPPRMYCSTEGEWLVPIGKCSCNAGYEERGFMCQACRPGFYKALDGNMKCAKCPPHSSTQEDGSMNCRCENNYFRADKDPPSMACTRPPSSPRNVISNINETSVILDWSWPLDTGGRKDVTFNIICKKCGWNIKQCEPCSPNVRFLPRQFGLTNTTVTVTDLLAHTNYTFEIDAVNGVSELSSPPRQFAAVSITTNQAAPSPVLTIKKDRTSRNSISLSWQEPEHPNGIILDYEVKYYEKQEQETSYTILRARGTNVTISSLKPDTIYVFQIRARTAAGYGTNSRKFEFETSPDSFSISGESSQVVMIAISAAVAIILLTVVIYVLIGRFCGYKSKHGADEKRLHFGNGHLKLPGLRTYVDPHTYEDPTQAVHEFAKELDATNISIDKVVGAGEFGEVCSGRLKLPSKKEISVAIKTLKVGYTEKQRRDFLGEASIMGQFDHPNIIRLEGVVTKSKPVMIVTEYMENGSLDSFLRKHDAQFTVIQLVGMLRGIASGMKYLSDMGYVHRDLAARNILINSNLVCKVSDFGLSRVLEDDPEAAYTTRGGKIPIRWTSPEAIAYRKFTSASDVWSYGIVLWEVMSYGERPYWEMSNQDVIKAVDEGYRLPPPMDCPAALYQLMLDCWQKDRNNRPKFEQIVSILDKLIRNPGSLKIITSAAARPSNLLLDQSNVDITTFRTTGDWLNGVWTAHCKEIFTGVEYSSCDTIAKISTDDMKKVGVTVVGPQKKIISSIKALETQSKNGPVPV
T32 sequence (P00540 whole entry): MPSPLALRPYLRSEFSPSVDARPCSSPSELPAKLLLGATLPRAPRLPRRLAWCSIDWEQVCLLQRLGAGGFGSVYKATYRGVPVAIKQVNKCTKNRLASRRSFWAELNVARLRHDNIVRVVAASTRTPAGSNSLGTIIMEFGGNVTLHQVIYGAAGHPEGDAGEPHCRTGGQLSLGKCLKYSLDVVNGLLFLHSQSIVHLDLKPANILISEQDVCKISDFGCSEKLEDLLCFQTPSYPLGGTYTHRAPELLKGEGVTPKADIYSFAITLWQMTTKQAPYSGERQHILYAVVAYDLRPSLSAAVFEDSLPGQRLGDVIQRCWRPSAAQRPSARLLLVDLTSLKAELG
T3 sequence (P06239 whole entry): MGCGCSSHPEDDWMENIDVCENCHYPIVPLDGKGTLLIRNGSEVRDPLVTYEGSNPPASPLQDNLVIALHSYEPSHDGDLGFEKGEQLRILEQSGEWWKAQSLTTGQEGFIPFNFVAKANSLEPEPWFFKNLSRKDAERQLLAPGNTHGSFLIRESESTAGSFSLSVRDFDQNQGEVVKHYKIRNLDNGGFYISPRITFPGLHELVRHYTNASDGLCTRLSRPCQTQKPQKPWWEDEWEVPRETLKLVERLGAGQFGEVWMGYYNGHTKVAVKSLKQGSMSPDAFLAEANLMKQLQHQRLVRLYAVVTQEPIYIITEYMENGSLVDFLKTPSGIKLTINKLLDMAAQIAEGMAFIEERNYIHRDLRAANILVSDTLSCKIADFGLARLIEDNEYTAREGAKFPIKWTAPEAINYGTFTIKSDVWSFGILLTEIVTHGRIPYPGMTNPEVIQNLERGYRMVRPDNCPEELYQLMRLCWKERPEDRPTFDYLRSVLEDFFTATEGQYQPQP
T26 sequence (P07949 29-1114 Y791F): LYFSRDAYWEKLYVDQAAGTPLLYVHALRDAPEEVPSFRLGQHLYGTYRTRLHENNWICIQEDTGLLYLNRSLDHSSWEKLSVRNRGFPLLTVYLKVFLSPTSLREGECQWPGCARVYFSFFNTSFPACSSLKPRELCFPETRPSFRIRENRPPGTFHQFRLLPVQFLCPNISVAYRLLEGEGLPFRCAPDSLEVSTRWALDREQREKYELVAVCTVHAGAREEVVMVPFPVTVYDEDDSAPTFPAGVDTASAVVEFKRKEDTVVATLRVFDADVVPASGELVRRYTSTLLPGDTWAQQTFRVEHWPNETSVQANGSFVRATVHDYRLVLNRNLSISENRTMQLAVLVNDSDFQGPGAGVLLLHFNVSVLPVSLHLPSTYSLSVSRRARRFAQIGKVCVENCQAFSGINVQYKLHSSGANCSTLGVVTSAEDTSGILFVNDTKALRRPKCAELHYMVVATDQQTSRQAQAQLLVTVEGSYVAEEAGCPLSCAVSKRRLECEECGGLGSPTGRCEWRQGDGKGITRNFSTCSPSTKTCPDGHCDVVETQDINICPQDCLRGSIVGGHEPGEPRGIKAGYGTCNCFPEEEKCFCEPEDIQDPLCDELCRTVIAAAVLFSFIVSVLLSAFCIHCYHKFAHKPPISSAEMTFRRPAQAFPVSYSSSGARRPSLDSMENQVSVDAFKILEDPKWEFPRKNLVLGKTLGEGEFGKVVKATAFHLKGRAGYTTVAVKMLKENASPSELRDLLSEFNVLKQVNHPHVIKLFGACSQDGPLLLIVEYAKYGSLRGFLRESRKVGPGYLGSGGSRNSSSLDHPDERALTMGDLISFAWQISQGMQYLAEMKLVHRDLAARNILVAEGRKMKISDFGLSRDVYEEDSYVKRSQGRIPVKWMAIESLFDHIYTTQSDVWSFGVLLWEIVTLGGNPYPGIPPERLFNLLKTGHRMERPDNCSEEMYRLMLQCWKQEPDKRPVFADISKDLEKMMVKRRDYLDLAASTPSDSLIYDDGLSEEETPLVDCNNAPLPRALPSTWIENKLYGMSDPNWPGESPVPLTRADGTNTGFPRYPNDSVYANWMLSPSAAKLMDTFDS
T9 sequence (Q13164 whole entry): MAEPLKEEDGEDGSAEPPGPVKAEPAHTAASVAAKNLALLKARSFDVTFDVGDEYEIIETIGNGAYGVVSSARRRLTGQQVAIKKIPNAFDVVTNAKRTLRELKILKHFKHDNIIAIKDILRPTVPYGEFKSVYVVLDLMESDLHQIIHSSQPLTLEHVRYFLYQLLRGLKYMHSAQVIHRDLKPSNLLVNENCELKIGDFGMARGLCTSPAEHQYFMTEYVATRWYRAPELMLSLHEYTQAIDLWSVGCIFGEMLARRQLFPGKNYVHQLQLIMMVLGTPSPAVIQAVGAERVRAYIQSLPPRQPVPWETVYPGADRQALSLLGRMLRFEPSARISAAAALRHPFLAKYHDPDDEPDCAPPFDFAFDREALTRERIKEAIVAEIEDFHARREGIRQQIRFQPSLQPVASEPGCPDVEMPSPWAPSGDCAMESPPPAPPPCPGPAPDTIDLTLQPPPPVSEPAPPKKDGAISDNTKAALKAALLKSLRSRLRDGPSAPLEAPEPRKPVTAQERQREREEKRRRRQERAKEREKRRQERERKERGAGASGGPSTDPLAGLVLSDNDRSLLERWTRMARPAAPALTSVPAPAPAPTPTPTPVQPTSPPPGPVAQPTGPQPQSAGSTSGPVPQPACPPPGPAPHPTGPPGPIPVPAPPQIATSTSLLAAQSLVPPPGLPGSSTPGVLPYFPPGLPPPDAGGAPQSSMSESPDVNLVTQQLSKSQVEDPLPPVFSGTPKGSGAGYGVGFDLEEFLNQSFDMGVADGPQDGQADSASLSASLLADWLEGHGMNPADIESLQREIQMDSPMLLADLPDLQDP
T15 sequence (Q96BR1 whole entry): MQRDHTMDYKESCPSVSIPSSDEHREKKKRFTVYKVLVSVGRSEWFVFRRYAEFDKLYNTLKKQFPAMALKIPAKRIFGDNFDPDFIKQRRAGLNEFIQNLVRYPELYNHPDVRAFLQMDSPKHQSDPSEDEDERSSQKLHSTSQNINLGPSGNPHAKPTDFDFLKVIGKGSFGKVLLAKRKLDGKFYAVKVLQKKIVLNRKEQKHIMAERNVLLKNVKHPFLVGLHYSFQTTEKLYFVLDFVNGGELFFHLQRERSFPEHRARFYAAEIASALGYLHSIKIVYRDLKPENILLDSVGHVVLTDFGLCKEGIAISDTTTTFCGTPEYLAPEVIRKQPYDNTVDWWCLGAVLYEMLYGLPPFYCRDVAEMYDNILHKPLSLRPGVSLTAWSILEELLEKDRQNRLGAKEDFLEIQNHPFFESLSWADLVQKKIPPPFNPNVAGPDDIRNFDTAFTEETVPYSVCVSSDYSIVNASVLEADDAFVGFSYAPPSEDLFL

**Q.** `[H]/N=C1/NC(=O)C(=Cc2ccc3c(c2)CCO3)S1` [CaNDY, (Z)-5-[(2,3-dihydrobenzofuran-5-yl)methylene]-2-iminothiazolidin-4-one] was tested. Which remaining activity at 1 µM (MARK1) did it give?
**A.** Its remaining activity at 1 µM is 94.4%.

**Q.** And the “%Activity” value (EGFR)?
**A.** The value was 99.9%.

**Q.** And the remaining activity at 1 µM (LCK)?
**A.** The remaining activity at 1 µM was 99%.

**Q.** What about the remaining activity at 1 µM (FLT4) of the same compound?
**A.** Its remaining activity at 1 µM is 103%.

**Q.** What about the remaining activity at 1 µM (EPHA3) of the same compound?
**A.** Its remaining activity at 1 µM is 96.3%.

**Q.** And the “%Activity” value (EGFR(L858R))?
**A.** Its value is 105.7%.

**Q.** What about the remaining activity at 1 µM (PDK1) of the same compound?
**A.** The remaining activity at 1 µM was 107%.

**Q.** What about the remaining activity at 1 µM (KIT) of the same compound?
**A.** The remaining activity at 1 µM was 99.3%.

**Q.** What about the remaining activity at 1 µM (Erk5) of the same compound?
**A.** Its remaining activity at 1 µM is 104%.

**Q.** What about the remaining activity at 1 µM (CDC7/ASK) of the same compound?
**A.** Its remaining activity at 1 µM is 68%.

**Q.** What about the “%Activity” value (EGFR(d746-750)) of the same compound?
**A.** Its value is 104.8%.

**Q.** And the remaining activity at 1 µM (FGFR1)?
**A.** Its remaining activity at 1 µM is 105%.

**Q.** What about the remaining activity at 1 µM (SPHK1) of the same compound?
**A.** The remaining activity at 1 µM was 83.5%.

**Q.** What about the remaining activity at 1 µM (LTK) of the same compound?
**A.** Its remaining activity at 1 µM is 96.9%.

**Q.** And the remaining activity at 1 µM (SGK3)?
**A.** Its remaining activity at 1 µM is 93.3%.

**Q.** What about the remaining activity at 1 µM (BRAF(V600E)_Cascade) of the same compound?
**A.** The remaining activity at 1 µM was 105%.

**Q.** What about the “%Activity” value (WNK1) of the same compound?
**A.** Its value is 98.8%.

**Q.** And the remaining activity at 1 µM (AKT1)?
**A.** The remaining activity at 1 µM was 104%.

**Q.** What about the remaining activity at 1 µM (AKT3) of the same compound?
**A.** The remaining activity at 1 µM was 104%.

**Q.** What about the remaining activity at 1 µM (TXK) of the same compound?
**A.** Its remaining activity at 1 µM is 96.8%.

**Q.** What about the remaining activity at 1 µM (TYRO3) of the same compound?
**A.** Its remaining activity at 1 µM is 104%.

**Q.** What about the remaining activity at 1 µM (NPM1-ALK) of the same compound?
**A.** Its remaining activity at 1 µM is 97.8%.

**Q.** And the remaining activity at 1 µM (PKD1)?
**A.** The remaining activity at 1 µM was 72.9%.

**Q.** And the remaining activity at 1 µM (MAP2K3_Cascade)?
**A.** Its remaining activity at 1 µM is 101%.

**Q.** What about the remaining activity at 1 µM (ABL(T315I)) of the same compound?
**A.** Its remaining activity at 1 µM is 97%.

**Q.** And the remaining activity at 1 µM (RET(Y791F))?
**A.** Its remaining activity at 1 µM is 100%.

**Q.** What about the remaining activity at 1 µM (PRKX) of the same compound?
**A.** Its remaining activity at 1 µM is 97.6%.

**Q.** What about the remaining activity at 1 µM (MER) of the same compound?
**A.** The remaining activity at 1 µM was 102%.

**Q.** What about the remaining activity at 1 µM (HCK) of the same compound?
**A.** Its remaining activity at 1 µM is 95.5%.

**Q.** What about the remaining activity at 1 µM (PAK3) of the same compound?
**A.** The remaining activity at 1 µM was 109%.

**Q.** What about the remaining activity at 1 µM (KIT(T670I)) of the same compound?
**A.** Its remaining activity at 1 µM is 96.6%.

**Q.** And the remaining activity at 1 µM (MOS_Cascade)?
**A.** Its remaining activity at 1 µM is 92.4%.

**Q.** And the remaining activity at 1 µM (MAP4K2)?
**A.** Its remaining activity at 1 µM is 76.7%.

**Q.** And the remaining activity at 1 µM (NEK1)?
**A.** The remaining activity at 1 µM was 95.6%.

**Q.** What about the remaining activity at 1 µM (MAP2K1_Cascade) of the same compound?
**A.** Its remaining activity at 1 µM is 99.3%.
